ChEMBL document CHEMBL2062517, “Design, synthesis, and antiviral activity of entry inhibitors that target the CD4-binding site of HIV-1” (J Med Chem, 2012)
pIC50: −log10 of the molar value.

Columns and labels:
Assay type in all cases: cell-based
[1] = system: MT2; experiment: (§1) Cytotoxicity against human MT2 cells after 4 days by XTT assay; conditions: mt2, 96 h
[2] = Cytotoxicity against human TZM-b1 cells after 3 days by XTT assay; conditions: for CC50 at 72 h: TZM-b1 cells; for CC50: tzm-b1, 72 h
[3] = Inhibition of X4-tropic HIV1 HXB2 gp120-mediated entry into human TZM-b1 cells expressing CD4,CXCR4,CCR5,luciferase and beta-galactosidase after 3 days by single cycle neutralization assay; conditions: Human immunodeficiency virus 1, HXB2, TZM-b1, 72 h
[4] = Inhibition of X4-tropic HIV1 3B gp120-mediated entry into human MT2 cells assessed as Inhibition of p24 production incubated overnight followed by compound wash-out measured after 4 days post-infection by multi-cycle neutralization assay; conditions: Human immunodeficiency virus 1, 3B, MT2, 96 h
[5] = Cytotoxicity against human TZM-b1 cells at >74 uM after 3 days by XTT assay; conditions: tzm-b1, 72 h
[6] = as §1; conditions: MT2 cells
[7] = Cytotoxicity against human TZM-b1 cells at >60 uM after 3 days by XTT assay; conditions: tzm-b1, 72 h
[8] = Cytotoxicity against human TZM-b1 cells at >75.5 uM after 3 days by XTT assay; conditions: tzm-b1, 72 h
[9] = Cytotoxicity against human TZM-b1 cells at >87 uM after 3 days by XTT assay; conditions: tzm-b1, 72 h
[10] = Cytotoxicity against human TZM-b1 cells at >77.8 uM after 3 days by XTT assay; conditions: tzm-b1, 72 h
[11] = Cytotoxicity against human TZM-b1 cells at >90 uM after 3 days by XTT assay; conditions: tzm-b1, 72 h
[12] = system: MT2; experiment: Cytotoxicity against human MT2 cells at >88 uM after 4 days by XTT assay; conditions: mt2, 96 h
[13] = Cytotoxicity against human TZM-b1 cells at >88 uM after 3 days by XTT assay; conditions: tzm-b1, 72 h
[14] = Cytotoxicity against human TZM-b1 cells at >78.2 uM after 3 days by XTT assay; conditions: tzm-b1, 72 h
[15] = Cytotoxicity against human TZM-b1 cells at >75.8 uM after 3 days by XTT assay; conditions: tzm-b1, 72 h
[16] = Cytotoxicity against human TZM-b1 cells at >85 uM after 3 days by XTT assay; conditions: tzm-b1, 72 h
[17] = system: MT2; experiment: Cytotoxicity against human MT2 cells at >41 uM after 4 days by XTT assay; conditions: mt2, 96 h
[18] = Cytotoxicity against human TZM-b1 cells at >22 uM after 3 days by XTT assay; conditions: tzm-b1, 72 h
[19] = system: MT2; experiment: Cytotoxicity against human MT2 cells at >[…] after 4 days by XTT assay; conditions: mt2, 96 h
[20] = system: MT2; experiment: Cytotoxicity against human MT2 cells at >62 uM after 4 days by XTT assay; conditions: mt2, 96 h
[21] = Cytotoxicity against human TZM-b1 cells at >84 uM after 3 days by XTT assay; conditions: tzm-b1, 72 h

Row | Compound | CC50 [1] [µM] | CC50 at 72 h [2] [µM] | pIC50 [3] | pIC50 [4] | also measured
1 | CCn1cc(NC(=O)C(=O)Nc2ccc(Cl)cc2)cn1 | 10.7 | 8 | 5.23 | 4.92 | 
2 | COC(=O)[C@@H]1C[C@@H](NC(=O)C(=O)Nc2ccc(Cl)cc2)[C@H](c2ccccc2)N1 |  | > 99.6 | < 4.00 | < 4.60 | 
3 | C[C@@H](NC(=O)C(=O)Nc1ccc(Cl)cc1)[C@H](c1ccccc1)N1CCOCC1 |  | > 99.6 | < 4.00 | < 4.60 | 
4 | Cc1nc(C(NC(=O)C(=O)Nc2ccc(C(F)(F)F)cc2)C2CCCCN2)sc1CCO (stereo unspecified) | > 39 | > 74 | 5.31 | 4.76 | Activity [5]: 35%
5 | CC1(C)CC(NC(=O)C(=O)Nc2ccc(Cl)cc2)CC(C)(C)N1 |  | > 60 | 5.38 | 5.10 | CC50 at 96 h [6]: 150 µM; Activity [7]: 10%
6 | Cc1nc(C(NC(=O)C(=O)Nc2ccc(C(F)(F)F)cc2)C2CCCCN2)sc1CO (mixture of isomers) |  | > 75.5 | 4.99 | 5.34 | Activity [8]: 10%
7 | Cc1nc(C(NC(=O)C(=O)Nc2ccc(F)cc2F)C2CCCCN2)sc1CO (mixture of isomers) | > 110 | > 87 | < 4.06 | 3.96 | 
8 | Cc1nc(C(NC(=O)C(=O)Nc2ccc(F)c(F)c2)C2CCCCN2)sc1CO (mixture of isomers) |  | > 87 | 5.08 | 4.85 | Activity [9]: 0%
9 | CC(=O)c1ccc(NC(=O)C(=O)NC(c2nc(C)c(CO)s2)C2CCCCN2)cc1 (mixture of isomers) | > 107 | > 86 | < 4.07 | 3.97 | 
10 | Cc1nc(C(NC(=O)C(=O)Nc2ccc(F)c(Cl)c2)C2CCCCN2)sc1CO (mixture of isomers) |  | > 77.8 | 5.19 | 5.02 | Activity [10]: 0%
11 | Cc1nc(C(NC(=O)C(=O)Nc2ccc(F)cc2)C2CCCCN2)sc1CO (mixture of isomers) | > 113 | > 90 | 5.13 | 4.32 | Activity [11]: 0%
12 | Cc1ccc(NC(=O)C(=O)NC(c2nc(C)c(CO)s2)C2CCCCN2)c(F)c1 (mixture of isomers) | > 109 | > 88 | < 4.06 | 4.18 | 
13 | Cc1nc(C(NC(=O)C(=O)Nc2ccc(Cl)c(F)c2)C2CCCCN2)sc1CO (mixture of isomers) |  | 58.4 | 5.80 | 5.42 | CC50 at 96 h [6]: 77.8 µM
14 | Cc1ccc(NC(=O)C(=O)NC(c2nc(C)c(CO)s2)C2CCCCN2)cc1F (mixture of isomers) |  | > 88 | 5.57 | 5.28 | Activity [12]: 30%; Activity [13]: 0%
15 | Cc1nc(C(NC(=O)C(=O)NC2CCCCCC2)C2CCCCN2)sc1CO (mixture of isomers) |  | > 90 | < 4.05 | 4.41 | 
16 | Cc1nc(C(NC(=O)C(=O)Nc2ccc(F)cc2F)C2CCCCN2)sc1CCO (mixture of isomers) | > 105 | > 84 | < 4.08 | < 3.98 | 
17 | Cc1nc(C(NC(=O)C(=O)Nc2ccc(F)c(F)c2)C2CCCCN2)sc1CCO (mixture of isomers) |  | > 78.2 | 5.09 | 4.62 | Activity [14]: 10%
18 | CC(=O)c1ccc(NC(=O)C(=O)NC(c2nc(C)c(CCO)s2)C2CCCCN2)cc1 (mixture of isomers) | > 48.3 | > 77.3 | < 4.11 | 4.61 | 

Row | Compound | CC50 [1] [µM] | CC50 at 72 h [2] [µM] | pIC50 [3] | pIC50 [4] | also measured
19 | Cc1nc(C(NC(=O)C(=O)Nc2ccc(F)c(Cl)c2)C2CCCCN2)sc1CCO (mixture of isomers) |  | > 75.8 | 5.05 | 4.71 | CC50 at 96 h [6]: 94.7 µM; Activity [15]: 20%
20 | Cc1nc(C(NC(=O)C(=O)Nc2ccc(F)cc2)C2CCCCN2)sc1CCO (mixture of isomers) |  | > 88 | 4.66 | 4.67 | CC50 at 96 h [6]: 109 µM
21 | Cc1ccc(NC(=O)C(=O)NC(c2nc(C)c(CCO)s2)C2CCCCN2)c(F)c1 (mixture of isomers) |  | > 78.8 | < 4.10 | 4.34 | 
22 | Cc1ccc(NC(=O)C(=O)NC(c2nc(C)c(CCO)s2)C2CCCCN2)cc1F (mixture of isomers) |  | > 85 | 5.78 | 5.43 | CC50 at 96 h [6]: 85 µM; Activity [16]: 40%
23 | Cc1nc(C(NC(=O)C(=O)Nc2ccc(Cl)c(F)c2)C2CCCCN2)sc1CCO (mixture of isomers) | > 41 | 61 | 5.70 | 5.46 | Activity [17]: 10%
24 | Cc1nc(C(NC(=O)C(=O)NC2CCCCCC2)C2CCCCN2)sc1CCO (mixture of isomers) |  | > 88 | < 4.06 | 4.71 | CC50 at 96 h [6]: 60 µM
25 | Cc1nc(C(NC(=O)C(=O)Nc2ccc(Cl)cc2)C2CCCCN2)sc1CO (mixture of isomers) | > 108 | > 22 | 5.37 | 5.33 | Activity [18]: 10%; Activity [19]: 40%
26 | Cc1nc(C(NC(=O)C(=O)Nc2ccc(Cl)cc2)C2CCCNC2)sc1CO (mixture of isomers) | > 81 | 60.2 | 5.85 | 4.92 | 
27 | Cc1nc(C(NC(=O)C(=O)Nc2ccc(Cl)cc2)C2CCCCN2)sc1CCO (mixture of isomers) | > 62 |  | 5.34 | 5.38 | Activity [20]: 0%; CC50 [2]: 32.8 µM
28 | Cc1nc(C(NC(=O)C(=O)Nc2ccc(Cl)cc2)C2CCCNC2)sc1CCO (mixture of isomers) | > 78.5 | 59.4 | 6.19 | 4.88 | 
29 | Cc1nc(C(NC(=O)C(=O)Nc2ccc(Cl)cc2)C2CCCCN2C)sc1CCO (mixture of isomers) |  |  | 5.72 | 4.54 | CC50 at 96 h [6]: 88 µM; CC50 [2]: 36 µM
30 | CC(=O)N1CCCCC1C(NC(=O)C(=O)Nc1ccc(Cl)cc1)c1nc(C)c(CCO)s1 (mixture of isomers) |  | > 84 | 4.71 | < 4.28 | Activity [21]: 20%
31 | Cc1nc(C(NC(=O)C(=O)Nc2ccc(Cl)cc2)C2CCCN2)sc1CO (mixture of isomers) |  |  | 5.32 | 4.81 | CC50 at 96 h [6]: 45 µM; CC50 [2]: 12.4 µM
32 | Cc1nc(C(NC(=O)C(=O)Nc2ccc(Cl)cc2)C2CCCN2)sc1CCO (mixture of isomers) |  | 4.9 | 5.38 | 4.79 | CC50 at 96 h [6]: 42 µM
33 | Cc1nc(C(NC(=O)C(=O)Nc2ccc(Cl)cc2)C2CCNCC2)sc1CO (racemic) | > 81 | 81 | 6.08 | 4.53 | 
34 | Cc1nc(C(NC(=O)C(=O)Nc2ccc(Cl)cc2)C2CCNCC2)sc1CCO (racemic) | > 78.5 | 85.4 | 6.00 | 4.52 | 
35 | CNCC(NC(=O)C(=O)Nc1ccc(Cl)cc1)c1nc(C)c(CCO)s1 (racemic) | > 43 |  | 5.55 | 4.61 | CC50 [2]: 16.6 µM
